Data published in patent publication US6982279B2, “Arylated furan- and thiophenecarboxamides, processes for their preparation, their use as medicaments, and pharmaceutical preparations comprising them” (Aventis Pharm Deutschland GmbH, priority 2000, dated 2006).

Molecular target: T1, Kv1.5 channels from humans (Homo sapiens, UniProt P22460)
T1 construct: expressed in transfected cells; host or cells: Xenopus laevis oocytes injected with in vitro synthesized RNA
Assay: Kv1.5 currents in Xenopus oocytes, 2-microelectrode voltage clamp
Assay type: cell-based
Conditions: human Kv1.5 expressed in Xenopus laevis oocytes; voltage jumps to 0 mV and 40 mV lasting 500 ms; room temperature; Hill equation
Protocol: Kv1.5 channels from humans were expressed in Xenopus oocytes. To this end, oocytes from Xenopus laevis were first isolated and defolliculated. RNA coding for Kv1.5 synthesized in vitro was then injected into these oocytes. After a Kv1.5 protein expression for 1-7 days, Kv1.5 currents were measured on the oocytes using the 2-microelectrode voltage clamp technique. The Kv1.5 channels were in this case as a rule activated using voltage jumps to 0 mV and 40 mV lasting 500 ms. The bath was rinsed using a solution of the following composition: NaCl 96 mM, KCl 2 mM, CaCl2 1.8 mM, MgCl2 1 mM, HEPES 5 mM (titrated with NaOH to pH 7.4). These experiments were carried out at room temperature. The following were employed for data acquisition and analysis: Gene clamp amplifier (Axon Instruments, Foster City, USA) and MacLab D/A converter and software (ADInstruments, Castle Hill, Australia). The substances according to the invention were tested by adding them to the bath solution in different concentrations. The effects of the substances were calculated as the percentage inhibition of the Kv1.5 control current which was obtained when no substance was added to the solution. The data were then extrapolated using the Hill equation in order to determine the inhibition concentrations IC50 for the respective substances.

T1 sequence (P22460 whole entry): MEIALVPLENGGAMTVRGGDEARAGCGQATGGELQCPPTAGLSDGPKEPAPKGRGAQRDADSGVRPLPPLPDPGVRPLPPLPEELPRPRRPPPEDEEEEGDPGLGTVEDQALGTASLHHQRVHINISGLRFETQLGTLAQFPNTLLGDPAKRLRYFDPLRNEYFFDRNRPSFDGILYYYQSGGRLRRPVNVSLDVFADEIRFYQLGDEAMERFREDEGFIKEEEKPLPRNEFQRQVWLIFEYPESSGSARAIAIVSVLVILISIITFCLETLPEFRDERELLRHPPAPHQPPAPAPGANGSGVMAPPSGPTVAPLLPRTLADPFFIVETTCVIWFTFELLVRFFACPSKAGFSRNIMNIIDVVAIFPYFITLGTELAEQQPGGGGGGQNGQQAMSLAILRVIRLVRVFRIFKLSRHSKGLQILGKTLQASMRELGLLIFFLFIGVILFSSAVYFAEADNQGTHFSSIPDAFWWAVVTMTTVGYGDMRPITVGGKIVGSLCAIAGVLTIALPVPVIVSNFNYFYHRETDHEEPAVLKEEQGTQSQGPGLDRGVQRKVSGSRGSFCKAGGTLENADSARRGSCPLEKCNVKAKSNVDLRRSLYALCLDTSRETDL

| SMILES | IC50 [µM] |
| --- | --- |
| CC(C)CCNC(=O)c1occc1-c1ccccc1CNC(=O)OC(C)(C)C [Example 4] | 10 |
| O=C(NCc1ccccc1-c1ccsc1C(=O)NCc1ccc(F)cc1F)OCc1ccccc1 [Example 12] | 2 |
| COc1ccc(CC(=O)NCc2ccccc2-c2sccc2C(=O)NCCC(C)C)cc1 [Example 24] | 2.2 |
| COc1ccc(CC(=O)NCc2ccccc2-c2occc2C(=O)NCc2ccc(F)cc2F)cc1 [Example 27] | 6.6 |
| COc1ccc(CC(=O)NCc2ccccc2-c2ccc(C(=O)NCc3ccc(F)cc3F)o2)cc1 [Example 29] | 4.2 |
| COc1ccc(CC(=O)NCc2ccccc2-c2occc2C(=O)NCCC(C)C)cc1 [Example 26] | 3.9 |
| CC(C)CCNC(=O)c1ccsc1-c1ccccc1CNC(=O)OC(C)(C)C [Example 6] | < 100 |
| CC(C)CCNC(=O)c1ccoc1-c1ccccc1CNC(=O)OCc1ccccc1 [Example 17] | 2.2 |
| COc1ccc(CC(=O)NCc2ccccc2-c2sccc2C(=O)NCc2ccc(F)cc2F)cc1 [Example 25] | 1.5 |
| COc1ccc(CC(=O)NCc2ccccc2-c2ccsc2C(=O)NCc2ccc(F)cc2F)cc1 [Example 23] | 1.2 |
| O=C(NCc1ccccc1-c1ccc(C(=O)NCc2ccc(F)cc2F)o1)OCc1ccccc1 [Example 19] | < 100 |
| COc1ccc(CC(=O)NCc2ccccc2-c2ccsc2C(=O)NCCC(C)C)cc1 [Example 22] | 1.7 |
| O=C(NCc1ccccc1-c1occc1C(=O)NCc1ccc(F)cc1F)OCc1ccccc1 [Example 18] | 5.2 |
| COc1ccc(CC(=O)NCc2ccccc2-c2ccc(C(=O)NCCC(C)C)o2)cc1 [Example 28] | < 100 |
| O=C(NCc1ccccc1-c1ccoc1C(=O)NCc1ccc(F)cc1F)OCc1ccccc1 [Example 14] | < 100 |
| CC(C)CCNC(=O)c1sccc1-c1ccccc1CNC(=O)OC(C)(C)C [Example 1, tert-Butyl {2-[2-(3-methylbutylcarbamoyl)thiophen-3-yl]benzyl}carbamate] | 4 |
| CC(C)(C)OC(=O)NCc1ccccc1-c1occc1C(=O)NCc1ccc(F)cc1F [Example 7] | 10 |
| O=C(NCc1ccccc1-c1sccc1C(=O)NCc1ccc(F)cc1F)OCc1ccccc1 [Example 16] | 1.9 |
| CC(C)CCNC(=O)c1occc1-c1ccccc1CNC(=O)OCc1ccccc1 [Example 13] | 5.6 |
| CC(C)(C)OC(=O)NCc1ccccc1-c1ccsc1C(=O)NCc1ccc(F)cc1F [Example 2] | 5 |
| COc1ccc(CC(=O)NCc2ccccc2-c2ccoc2C(=O)NCCC(C)C)cc1 [Example 20] | < 100 |
| CC(C)CCNC(=O)c1ccc(-c2ccccc2CNC(=O)OC(C)(C)C)o1 [Example 10] | < 100 |
| COc1ccc(CC(=O)NCc2ccccc2-c2ccoc2C(=O)NCc2ccc(F)cc2F)cc1 [Example 21] | 3.9 |
| CC(C)CCNC(=O)c1ccoc1-c1ccccc1CNC(=O)OC(C)(C)C [Example 8] | 5.2 |
| CC(C)CCNC(=O)c1ccsc1-c1ccccc1CNC(=O)OCc1ccccc1 [Example 15] | 1.2 |
| CC(C)(C)OC(=O)NCc1ccccc1-c1ccoc1C(=O)NCc1ccc(F)cc1F [Example 3] | 9 |
| CC(C)CCNC(=O)c1sccc1-c1ccccc1CNC(=O)OCc1ccccc1 [Example 11, Benzyl {2-[2-(3-methylbutylcarbamoyl)thiophen-3-yl]-benzyl}carbamate] | 3 |
| CC(C)(C)OC(=O)NCc1ccccc1-c1sccc1C(=O)NCc1ccc(F)cc1F [Example 5] | 3.1 |
| CC(C)(C)OC(=O)NCc1ccccc1-c1ccc(C(=O)NCc2ccc(F)cc2F)o1 [Example 9] | < 100 |
